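Test compounds were applied to cells in 96-well plates for 48 hours at 5 doses. At the GI50, growth is halved.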 The source made the active and inactive calls. Cut-off read from the data, not from the text of the source: active = GI50 up to about 1.1 µM and inactive = higher.
What was measured:
Experiment in all cases: inhibition of tumour cell growth, NCI panel, 48 h
CAKI-1 = tested on: CAKI-1
HCT-116 = tested on: HCT-116
KM12 = tested on: KM12
ACHN = tested on: ACHN
UO-31 = tested on: UO-31
DU-145 = tested on: DU-145
HOP-92 = tested on: HOP-92
MCF7 = tested on: MCF7
UACC-62 = tested on: UACC-62
SF-539 = tested on: SF-539
K562 = tested on: K562
OVCAR-4 = tested on: OVCAR-4
HL-60 = tested on: HL-60
786-0 = tested on: 786-0
A498 = tested on: A498
MOLT-4 = tested on: MOLT-4
T47D = tested on: T47D
SW-620 = tested on: SW-620
OVCAR-8 = tested on: OVCAR-8
SN12C = tested on: SN12C
TK-10 = tested on: TK-10
HCT-15 = tested on: HCT-15
MDA-MB-231 = tested on: MDA-MB-231
OVCAR-3 = tested on: OVCAR-3
MDA-N = tested on: MDA-N
Hs-578T = tested on: Hs-578T
OVCAR-5 = tested on: OVCAR-5
IGROV-1 = tested on: IGROV-1
NCI/ADR-RES = tested on: NCI/ADR-RES
RXF 393 = tested on: RXF 393
UACC-257 = tested on: UACC-257
PC-3 = tested on: PC-3
SK-MEL-5 = tested on: SK-MEL-5
SK-MEL-2 = tested on: SK-MEL-2
U-251 = tested on: U-251
BT-549 = tested on: BT-549
EKVX = tested on: EKVX
CCRF-CEM = tested on: CCRF-CEM
SK-MEL-28 = tested on: SK-MEL-28
M14 = tested on: M14
COLO 205 = tested on: COLO 205
NCI-H23 = tested on: NCI-H23
SF-295 = tested on: SF-295
RPMI-8226 = tested on: RPMI-8226
SF-268 = tested on: SF-268
SNB-19 = tested on: SNB-19
HOP-62 = tested on: HOP-62
A549 = tested on: A549
MDA-MB-435 = tested on: MDA-MB-435
LOX IMVI = tested on: LOX IMVI
NCI-H522 = tested on: NCI-H522
HT-29 = tested on: HT-29
Malme-3M = tested on: Malme-3M
NCI-H226 = tested on: NCI-H226
NCI-H460 = tested on: NCI-H460
SK-OV-3 = tested on: SK-OV-3
SNB-75 = tested on: SNB-75
HCC 2998 = tested on: HCC 2998

Measured: GI50

CNC(=O)c1ccccc1[S+]1c2cccc3cccc(c23)C(=O)N1C (stereo not given)
inactive: CAKI-1 > 100 µM | HCT-116 > 100 µM | KM12 > 100 µM | ACHN > 100 µM | UO-31 > 100 µM | DU-145 > 100 µM | HOP-92 > 100 µM | MCF7 > 100 µM | UACC-62 > 100 µM | SF-539 > 100 µM | K562 > 100 µM | OVCAR-4 > 100 µM | HL-60 > 100 µM | 786-0 > 100 µM | A498 > 100 µM | MOLT-4 > 100 µM | T47D > 100 µM | SW-620 > 100 µM | OVCAR-8 > 100 µM | SN12C > 100 µM | TK-10 > 100 µM | MDA-MB-231 > 100 µM | OVCAR-3 > 100 µM | MDA-N > 100 µM | Hs-578T > 100 µM | OVCAR-5 > 100 µM | IGROV-1 > 100 µM | NCI/ADR-RES > 100 µM | RXF 393 > 100 µM | UACC-257 > 100 µM | PC-3 > 100 µM | SK-MEL-5 > 100 µM | SK-MEL-2 > 100 µM | U-251 > 100 µM | BT-549 > 100 µM | EKVX > 100 µM | CCRF-CEM > 100 µM | SK-MEL-28 > 100 µM | M14 > 100 µM | COLO 205 > 100 µM | NCI-H23 > 100 µM | SF-295 > 100 µM | RPMI-8226 > 100 µM | SF-268 > 100 µM | SNB-19 > 100 µM | HOP-62 > 100 µM | A549 > 100 µM | MDA-MB-435 > 100 µM | LOX IMVI > 100 µM | NCI-H522 > 100 µM | HT-29 > 100 µM | Malme-3M > 100 µM | NCI-H226 > 100 µM
> 100 µM: HCT-15

CC(C)CC(N)C(=O)O (stereo not given)
inactive: CAKI-1 > 100 µM | HCT-116 > 100 µM | KM12 > 100 µM | ACHN > 100 µM | UO-31 > 100 µM | DU-145 > 100 µM | HOP-92 > 100 µM | MCF7 > 100 µM | UACC-62 > 100 µM | SF-539 > 100 µM | K562 > 100 µM | OVCAR-4 > 100 µM | HL-60 > 100 µM | 786-0 > 100 µM | A498 > 100 µM | MOLT-4 > 100 µM | T47D > 100 µM | SW-620 > 100 µM | OVCAR-8 > 100 µM | SN12C > 100 µM | TK-10 > 100 µM | MDA-MB-231 > 100 µM | NCI-H460 > 100 µM | OVCAR-3 > 100 µM | MDA-N > 100 µM | Hs-578T > 100 µM | IGROV-1 > 100 µM | NCI/ADR-RES > 100 µM | RXF 393 > 100 µM | UACC-257 > 100 µM | PC-3 > 100 µM | SK-MEL-5 > 100 µM | SK-MEL-2 > 100 µM | U-251 > 100 µM | SK-OV-3 > 100 µM | BT-549 > 100 µM | CCRF-CEM > 100 µM | SK-MEL-28 > 100 µM | M14 > 100 µM | COLO 205 > 100 µM | NCI-H23 > 100 µM | SF-295 > 100 µM | SNB-75 > 100 µM | RPMI-8226 > 100 µM | SF-268 > 100 µM | SNB-19 > 100 µM | HOP-62 > 100 µM | A549 > 100 µM | MDA-MB-435 > 100 µM | LOX IMVI > 100 µM | NCI-H522 > 100 µM | HT-29 > 100 µM | Malme-3M > 100 µM | NCI-H226 > 100 µM
> 100 µM: HCT-15

O=C1C(Cl)=C(Cl)C(=O)C2=C1C1c3ccccc3C2c2ccccc21
inactive: HCT-116 55.3 µM | KM12 59 µM | ACHN 43.2 µM | UO-31 47.6 µM | DU-145 > 100 µM | HOP-92 19.5 µM | MCF7 71.4 µM | UACC-62 30.5 µM | SF-539 31.3 µM | K562 38.6 µM | OVCAR-4 34.3 µM | HL-60 26.2 µM | 786-0 22.3 µM | A498 > 100 µM | MOLT-4 > 100 µM | T47D 25.3 µM | SW-620 29.4 µM | OVCAR-8 > 100 µM | SN12C > 100 µM | TK-10 83.9 µM | MDA-MB-231 31.1 µM | NCI-H460 32.5 µM | OVCAR-3 36.1 µM | MDA-N > 100 µM | Hs-578T 39.4 µM | OVCAR-5 > 100 µM | IGROV-1 > 100 µM | NCI/ADR-RES 94.8 µM | RXF 393 30.8 µM | UACC-257 > 100 µM | PC-3 > 100 µM | SK-MEL-5 > 100 µM | SK-MEL-2 > 100 µM | U-251 20.9 µM | SK-OV-3 94.4 µM | BT-549 14.8 µM | EKVX > 100 µM | CCRF-CEM 59 µM | SK-MEL-28 38.7 µM | M14 62.7 µM | COLO 205 24.2 µM | NCI-H23 46.3 µM | HCC 2998 63.8 µM | SF-295 41.5 µM | SNB-75 > 100 µM | RPMI-8226 25.6 µM | SF-268 > 100 µM | SNB-19 49.5 µM | HOP-62 28.9 µM | A549 99.1 µM | MDA-MB-435 77.4 µM | NCI-H522 18.7 µM | HT-29 > 100 µM | Malme-3M 24 µM | NCI-H226 > 100 µM
39.3 µM: HCT-15

— ChEMBL document CHEMBL1201862, “PubChem BioAssay data set” (2004)
